Laboratory results taken from patent US7651695B2, “Medicated stents for the treatment of vascular disease” (Advanced Cardiovascular Systems, Inc., priority 2001, dated 2010).
Where “and” joins values, the source holds several entries; their conditions need not be identical. Identical values can stand only once. Like-named read-outs stand apart in the source and are kept apart here. Starred links: 1 amine or outer side, 2 acyl side, 3 side chain; linkers in the order of their positions; H or OH if unused. Positions of bridges follow the written chain, without caps; N, C: chain ends. Non-standard residues stand in square brackets, D forms with d. Residues, ends and D or L forms follow the SMILES beside them. Chains are numbered I, II in the order given. Actinocin(9to1) = Cc1c2oc3c(C)ccc(C(=O)[*:1])c3nc-2c(C(=O)[*:2])c(N)c1=O; NMeV = CN[C@H](C(=O)O)C(C)C; Sar = CNCC(=O)O

Key:
[1] = test system: porcine coronary arteries (EEL/IEL area); assay: Positive remodeling by stents coated with EVAL impregnated with actinomycin D in porcine coronary arteries; type: in vivo
Description: “Positive remodeling” is generally defined as the ability of the vessel walls to structurally adapt, by increasing in lumen size, to chronic stimuli. A positively remodeled lumen wall has a greater diameter or size as compared to a lumen wall which has not been subjected to the remodeling effect. Accordingly, the flow of blood through the remodeled site is increased—flow which would have otherwise been reduced because of, for example, the presence of plaque build-up or migration and proliferation of cells. The index of remodeling is defined by the ratio of the area circumscribed by the external elastic lamia (EEL) of the lesion site to the area circumscribed by the EEL of a reference site. As a result of the positive remodeling of the EEL, the internal elastic lamina (IEL), in response, can also increases in area or diameter.
In vivo data is provided illustrated positive remodeling caused by the application of actinomycin D. Stents coated with EVAL impregnated with actinomycin D and a control group of stents coated with EVAL free from actinomycin D were implanted in porcine coronary arteries. The animals were sacrificed at the end of 28 days. […] The index of remodeling was 1.076 (8.54/7.94).
FIGS. 3A and 3B illustrate sample pictures of the histology slides of the coronary vessels from the control group 64 RCA ([…]) and the actinomycin D loaded stent group 68 LAD (Left Anterior Descending), respectively. The stent used was an Advanced Cardiovascular Systems Multi-Link Duet™ (stainless steel). As is illustrated by FIG. 3B, the positive remodeling of IEL 10, caused by the application of actinomycin D, creates a gap between stent struts 12 and IEL 10. Thrombus deposites, illustrated by reference number 14, are formed in the gap over time. The use of a self-expandable stent eliminates the formation of the gap as the stent self-expands in response to the positive remodeling of IEL. Thrombus deposits can be, accordingly, eliminated.

[2] = test system: neointimal formation in the coronary arteries; assay: Porcine coronary stent injury model, drug delivered with microporous balloon catheter; type: in vivo, Domestic swine
Method: Porcine coronary models were used to assess the degree of the inhibition of neointimal formation in the coronary arteries of a porcine stent injury model by Actinomycin D, delivered with a microporous balloon catheter (1×10^6 pores/cm^2 with size ranging from 0.2-0.8 micron).
The preclinical animal testing was performed in accordance with the NIH Guide for Care and Use of Laboratory Animals. Domestic swine were utilized to evaluate effect of the drug on the inhibition of the neointimal formation. Each testing procedure, excluding the angiographic analysis at the follow-up endpoints, was conducted using sterile techniques. During the study procedure, the activated clotting time (ACT) was monitored regularly to ensure appropriate anticoagulation. Base line blood samples were collected for each animal before initiation of the procedure. Quantitative coronary angiographic analysis (QCA) and intravascular ultrasound (IVUS) analysis was used for vessel size assessment.
The vessels at the sites of the delivery were denuded by inflation of the PTCA balloons to 1:1 balloon to artery ratio and moving the balloons back and forth 5 times. Actinomycin D was delivered to the denuded sites at 3.5 atm (3.61 kg/sq. cm) for 2 minutes using the microporous balloon catheters before stent deployment. The average volume of delivery was about 3.3+/−1.2 ml. Following drug delivery, stents were deployed at the delivery site such that final stent to artery ratio was 1.1:1.
QCA and IVUS analyses were used for stent deployment guidance. Pre-stenting IVUS measurements of the lumen size at the targeted vessel sites were performed for determination of the balloon (size) inflation pressure. Quantitative analysis of the stented coronary arteries to compare pre-stenting, post-stenting, follow-up minimal luminal diameters, stent recoil, and balloon/stent to artery ratio were performed. Following stent implantation and final angiogram, all devices were withdrawn and the wounds closed; the animals were allowed to recover from anesthesia as managed by the attending veterinarian or animal care professionals at the research center.
Upon return to the research laboratory at the 28-day endpoint, angiographic assessments were performed. Coronary artery blood flow was assessed and the stented vessels were evaluated to determine minimal lumen diameter. The animals were euthanized following this procedure at the endpoint. Following euthanasia, the hearts were pressure perfusion fixed with formalin and prepared for histological analysis, encompassing light microscopy, and morphometry. Morphometric analysis of the stented arteries included assessment of the position of the stent struts and determination of vessel/lumen areas, percent (%) stenosis, injury scores, intimal and medial areas and intima/media ratios. Percent stenosis is quantitated by the following equation: 100(IEL area−lumen area)/IEL area where IEL is the internal elastic lamia.
The control group of animals received delivery of water instead of the drug. The test group of animals received actinomycin D in two different concentration of 10^−5M and 10^−4M. […] FIGS. 2A and 2B illustrate sample pictures of the histology slides of the coronary vessels from the control and the Dose 1 group, respectively.

[3] = test system: Medial smooth muscle cells (SMC) from rat aorta; assay: Inhibition of SMC proliferation (thymidine incorporation); type: cell-based; conditions: read-out: IC50 (concentration at which 50% of the cells stop proliferating)
Method: Medial smooth muscle cells (SMC) were isolated from rat aorta and cultured according to explant methods known to one of ordinary skill in the art. Cells were harvested via trypsinization and subcultivated. Cells were identified as vascular SMC through their characteristic hill-and-valley growth pattern as well as indirect immunofluorescence with monoclonal anti SMC α-actin. Studies were performed with cells at passage 3-4. SMC monlayers were established on 24 well culture dishes, scrape wounded and treated with actinomycin D, mytomycin and docetaxel. The cells were exposed to the drug solution of different concentrations for 2 hours and then washed with buffered saline solution. The proliferation of the cells was quantified by standard technique of thymidine incorporation.
The IC50 (concentration at which 50% of the cells stop proliferating) of actinomycin D was 10^−9M as compared to 5×10^−5M for mitomycin and 10^−6M for docetaxel.

[4] = average of 24 vessel sections, 28 days
[5] = one value per vessel section (ID # in the cell to the left), 28 days
[6] = Dose 1, 1E−05 M, n = 30, 28-day endpoint
[7] = Dose 2, 1E−04 M, n = 21, 28-day endpoint
[8] = rat aortic SMC, scrape wounded, 2 hours drug exposure, thymidine incorporation

| SMILES | EEL area compared with control vessels ([1]; 28 days, actinomycin D-loaded vessels vs control vessels) | AVG % EEL growth ([1]; ActD vs EVAL) [%] | AVG % IEL growth ([1]; ActD vs EVAL) [%] | index of remodeling ([1]; EEL area ratio 8.54/7.94, actinomycin D-loaded vs EVAL control) | EEL Area, AVG [1, 4] [mm^2] | IEL Area, AVG [1, 4] [mm2] | EEL Area, individual vessel section [1, 5] | IEL Area, individual vessel section [1, 5] | Percent Diameter Stenosis, angiographic data (QCA) ([2]; Dose 1, 1E−05 M, n = 10, 28-day endpoint) | Percent Stenosis (IEL area-lumen area)/IEL area, histomorphometric data [2, 6] | Residual Lumen (Lumen area)/IEL area, histomorphometric data [2, 6] | Percent Diameter Stenosis, angiographic data (QCA) ([2]; Dose 2, 1E−04 M, n = 7, 28-day endpoint) | Percent Stenosis (IEL area-lumen area)/IEL area, histomorphometric data [2, 7] | Residual Lumen (Lumen area)/IEL area, histomorphometric data [2, 7] | IC50 ([3]; Rattus norvegicus, 2 h) [nM] | IC50 [3, 8] [nM] |
| --- | --- | --- | --- | --- | --- | --- | --- | --- | --- | --- | --- | --- | --- | --- | --- | --- |
| Cc1c2oc3c(C)ccc(C(=O)N[C@@H]4C(=O)N[C@H](C(C)C)C(=O)N5CCC[C@H]5C(=O)N(C)CC(=O)N(C)[C@@H](C(C)C)C(=O)O[C@@H]4C)c3nc-2c(C(=O)N[C@@H]2C(=O)N[C@H](C(C)C)C(=O)N3CCC[C@H]3C(=O)N(C)CC(=O)N(C)[C@@H](C(C)C)C(=O)O[C@@H]2C)c(N)c1=O [actinomycin D] (I: T[dV]P[Sar][NMeV] / II: T[dV]P[Sar][NMeV]; ester I:1-I:C, II:1-II:C; linker I:N-II:N via Actinocin(9to1)) | statistically significantly greater | 7.486 | 13.18 | 1.076 | 8.5425 | 7.4727 | 7.4498 mm^2 and 8.2509 mm^2 and 7.7342 mm^2 and 7.9207 mm^2 and 6.9926 mm^2 and 8.3883 mm^2 and 7.8546 mm^2 and 9.2545 mm^2 and 9.2515 mm^2 and 8.7854 mm^2 and 9.5164 mm^2 and 9.1504 mm^2 and 9.6679 mm^2 and 9.1237 mm^2 and 9.9849 mm^2 and 9.4765 mm^2 and 7.4424 mm^2 and 9.1462 mm^2 and 8.9504 mm^2 and 8.9117 mm^2 and 8.7533 mm^2 and 7.3249 mm^2 and 7.1061 mm^2 and 8.5830 mm^2 | 6.3785 mm2 and 7.5206 mm2 and 6.9992 mm2 and 6.9632 mm2 and 6.0418 mm2 and 7.4794 mm2 and 6.2324 mm2 and 8.3785 mm2 and 8.5819 mm2 and 8.0964 mm2 and 8.6879 mm2 and 8.0914 mm2 and 8.7181 mm2 and 8.0273 mm2 and 8.5222 mm2 and 8.3796 mm2 and 6.4219 mm2 and 7.7757 mm2 and 7.5392 mm2 and 7.6573 mm2 and 6.9749 mm2 and 6.2815 mm2 and 5.9760 mm2 and 7.6195 mm2 | 36.8 +/− 9.7% | 51.8 +/− 13.8% | 0.49 +/− 0.14 | 32.3+/−11.7% | 54.1 +/− 11.7% | 0.46 +/− 0.08 | 1 |  |
| CC(=O)O[C@@]12CO[C@@H]1C[C@H](O)[C@@]1(C)C(=O)[C@H](O)C3=C(C)[C@@H](OC(=O)[C@H](O)[C@@H](NC(=O)OC(C)(C)C)c4ccccc4)C[C@@](O)([C@@H](OC(=O)c4ccccc4)[C@H]21)C3(C)C [docetaxel] |  |  |  |  |  |  |  |  |  |  |  |  |  |  |  | 1000 |
| CO[C@@]12[C@H](COC(N)=O)C3=C(C(=O)C(C)=C(N)C3=O)N1C[C@@H]1N[C@@H]12 [mitomycin] |  |  |  |  |  |  |  |  |  |  |  |  |  |  |  | 50000 |
